The record followed here is patent US7951794B2, “Thiophene derivatives” (Actelion Pharmaceuticals Ltd., priority 2005, dated 2011).

The structures appear in SMILES notation.

Assay [1] concerns the target recombinant human S1P1 receptor (Homo sapiens, UniProt P21453). The assay is described as follows: GTPγS assay to determine EC50 values. In kind it is biochemical. The conditions noted are these: 35S-GTPγS binding, membrane preparations of CHO cells expressing recombinant human S1P1 receptor, pH 7.4. On the procedure:
GTPγS binding assays are performed in 96 well microtiter plates (Nunc, 442587) in a final volume of 200 μl, using membrane preparations of CHO cells expressing recombinant human S1P1 receptor. Assay conditions are 20 mM Hepes (Fluka, 54461), 100 mM NaCl (Fluka, 71378), 5 mM MgCl2 (Fluka, 63064), 0.1% BSA (Calbiochem, 126609), 1 μM GDP (Sigma, G-7127), 2.5% DMSO (Fluka, 41644), […] ^35S-GTPγS (Amersham Biosciences, SJ1320). The pH is 7.4. Test compounds are dissolved and diluted in 100% DMSO and pre-incubated at room temperature for 30 min in 150 μl of the above assay buffer, in the absence of ^35S-GTPγS. After addition of 50 μl of ^35S-GTPγS, the assay is incubated for 1 h at room temperature.
The assay is terminated by transfer of the reaction mixture to a Multiscreen plate (Millipore, MAHFC1H60) using a cell harvester from Packard Biosciences, and the plates are washed with ice-cold 10 mM Na2HPO4/NaH2PO4 (70%/30%), dried, sealed at the bottom and, after addition of 25 μl MicroScint20 (Packard Biosciences, order no. 6013621), sealed on the top. Membrane-bound ^35S-GTPγS is measured with a TopCount from Packard Biosciences.
EC50 is the concentration of agonist inducing 50% of the maximal specific ^35S-GTPγS binding. Specific binding is determined by subtracting non-specific binding from maximal binding. Maximal binding is the amount of cpm bound to the Multiscreen plate in the presence of 10 μM of S1P. Non-specific binding is the amount of binding in the absence of an agonist in the assay.
In general terms: GTPγS resists hydrolysis and so accumulates on activated G proteins.

The test system of another assay is circulating lymphocytes. The assay is described as follows: Assessment of in vivo efficacy: circulating lymphocytes after oral administration. The conditions noted are these: 3 h after oral administration of 10 mg/kg to normotensive male Wistar rats, compared to vehicle-treated group. On the procedure:
The efficacy of the compounds of Formula (I) is assessed by measuring the circulating lymphocytes after oral administration of 3 to 30 mg/kg of a compound of Formula (I) to normotensive male Wistar rats. The animals are housed in climate-controlled conditions with a 12 h-light/dark cycle, and have free access to normal rat chow and drinking water. Blood is collected before and 3, 6 and 24 h after drug administration. Full blood is subjected to hematology using Advia Hematology system (Bayer Diagnostics, Zürich, Switzerland).
All data are presented as mean±SEM. Statistical analyses are performed by analysis of variance (ANOVA) using Statistica (StatSoft) and the Student-Newman-Keuls procedure for multiple comparisons. The null hypothesis is rejected when p<0.05.

Sequence of recombinant human S1P1 receptor (P21453 whole entry): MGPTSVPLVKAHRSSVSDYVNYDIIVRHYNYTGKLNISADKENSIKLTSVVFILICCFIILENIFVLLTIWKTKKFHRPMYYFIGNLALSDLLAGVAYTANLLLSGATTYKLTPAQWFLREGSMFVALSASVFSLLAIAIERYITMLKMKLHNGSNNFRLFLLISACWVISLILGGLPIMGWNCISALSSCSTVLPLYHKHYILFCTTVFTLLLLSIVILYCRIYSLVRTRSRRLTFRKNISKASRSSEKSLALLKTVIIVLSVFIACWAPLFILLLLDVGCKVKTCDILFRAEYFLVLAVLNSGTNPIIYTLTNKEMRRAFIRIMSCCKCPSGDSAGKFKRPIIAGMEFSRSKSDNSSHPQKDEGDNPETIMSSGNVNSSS

By EC50 is commonly meant the midpoint of the concentration-response curve. For the compound `CCc1sc(C(=O)CCc2cc(C)c(OC[C@@H](O)CO)c(C)c2)cc1-c1ccccc1` [Example 10, 3-[4-((S)-2,3-dihydroxy-propoxy)-3,5-dimethyl-phenyl]-1-(5-ethyl-4-phenyl-thiophen-2-yl)-propan-1-one], the 50% effective concentration (EC50) in assay [1] amounted to 6.7 nM. For the same compound, in the assay with circulating lymphocytes, the Lymphocyte counts is −48.5%.

In the case of `CCc1sc(C(=O)CCc2cc(C)c(CC(O)CO)c(C)c2)cc1-c1ccccc1` (stereo not shown) [Example 11, 3-[4-(2,3-dihydroxy-propyl)-3,5-dimethyl-phenyl]-1-(5-ethyl-4-phenyl-thiophen-2-yl)-propan-1-one], the half-maximal effective concentration (EC50) in assay [1] was 18.3 nM.

For the compound `CCc1sc(C(=O)CCc2cc(C)c(OC[C@@H](O)CO)c(C)c2)cc1-c1ccccc1C` [Example 20, 3-[4-((S)-2,3-dihydroxy-propoxy)-3,5-dimethyl-phenyl]-1-(5-ethyl-4-o-tolyl-thiophen-2-yl)-propan-1-one], the EC50 in assay [1] stood at 6.3 nM.

As to `CCCc1sc(C(=O)CCc2cc(C)c(OC[C@@H](O)CO)c(C)c2)cc1-c1ccccc1` [Example 24, 3-[4-((S)-2,3-dihydroxy-propoxy)-3,5-dimethyl-phenyl]-1-(4-phenyl-5-propyl-thiophen-2-yl)-propan-1-one], the EC50 in assay [1] is 16.4 nM.

Take `CCc1ccccc1-c1cc(C(=O)CCc2cc(C)c(OC[C@@H](O)CO)c(C)c2)sc1CC` [Example 31]: the EC50 in assay [1] stood at 9.3 nM.

As to `CCc1sc(C(=O)CCc2cc(C)c(OC[C@@H](O)CO)c(C)c2)cc1-c1ccccc1OC` [Example 50], the concentration for a half-maximal effect (EC50) in assay [1] worked out at 11.5 nM.
